Laboratory results: patent US10336762B2 (priority 2017, dated 2019)
Like-named read-outs stand apart in the source and are kept apart here.

Assays:
[1] = system: TNFα; test: cells; assay type: cell-based, human; conditions: Homo sapiens, Monocyte, LPS-stimulated human monocytes, read-out: EC50 TNF
[2] = biological target: IRAK4 enzyme (Homo sapiens (Human), UniProt Q9NWZ3); test: biochemical; assay type: biochemical; conditions: IRAK4 enzyme, 500 μM ATP
Chain of IRAK4 enzyme (Q9NWZ3 whole entry): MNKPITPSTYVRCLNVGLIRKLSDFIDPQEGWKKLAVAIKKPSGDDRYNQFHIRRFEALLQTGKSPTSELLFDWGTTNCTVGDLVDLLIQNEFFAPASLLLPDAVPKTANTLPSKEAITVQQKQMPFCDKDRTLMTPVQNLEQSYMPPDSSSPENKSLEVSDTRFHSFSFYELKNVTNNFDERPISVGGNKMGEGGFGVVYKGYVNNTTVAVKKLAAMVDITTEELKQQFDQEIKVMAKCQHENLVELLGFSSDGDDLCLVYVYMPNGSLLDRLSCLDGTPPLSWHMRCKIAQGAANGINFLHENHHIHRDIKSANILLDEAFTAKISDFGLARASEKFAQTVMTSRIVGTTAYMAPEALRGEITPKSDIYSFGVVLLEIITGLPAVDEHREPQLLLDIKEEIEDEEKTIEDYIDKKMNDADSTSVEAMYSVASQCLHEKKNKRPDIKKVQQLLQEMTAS

| Compound | EC50 ([1]; TNFα content) | IC50 ([2]; TR-FRET (HTRF)) | EC50 ([1]; TNFα by TR-FRET) | IC50 ([2]; TR-FRET) |
| --- | --- | --- | --- | --- |
| CC(C)(O)[C@H](F)CNC(=O)c1cnc(-c2ccc3cc(C#N)cnn23)cc1N[C@H]1C[C@H](CNC(=O)[C@@H]2C[C@H]2F)C1 [Example 659, 6-(3-cyanopyrrolo[1,2-b]pyridazin-7-yl)-N-((R)-2-fluoro-3-hydroxy-3-methylbutyl)-4-(((1S,3R)-3-(((1S,2R)-2-fluoro-cyclopropane-1-carbox-amido)methyl)cyclobutyl)amino)nicotinamide] | 16 nM | < 1 nM |  |  |
| Cc1nnc(NC[C@H]2C[C@H](Nc3cc(-c4ccc5cc(C#N)cnn45)ncc3C(=O)NC[C@@H](F)C(C)(C)O)C2)o1 [Example 694, 6-(3-cyanopyrrolo[1,2-b]pyridazin-7-yl)-N—((R)-2-fluoro-3-hydroxy-3-methylbutyl)-4-(((1r,3R)-3-(((5-methyl-1,3,4-oxadiazol-2-yl)amino)methyl)cyclobutyl)amino)nicotinamide] | 102 nM | < 1 nM |  |  |
| CC(C)(C)OC(=O)NC[C@H]1C[C@H](Nc2cc(-c3ccc4cc(C#N)cnn34)ncc2C(=O)NC[C@@H](F)C(C)(C)O)C1 [Example 549, tert-butyl (((1R,3r)-3-((2-(3-cyanopyrrolo[1,2-b]pyridazin-7-yl)-5-(((R)-2-fluoro-3-hydroxy-3-methylbutyl)carbamoyl)pyridin-4-yl)amino)cyclobutyl)methyl)carbamate] | 149 nM | 2 nM |  |  |
| CC(C)Nc1cc(-c2ccc3cc(C#N)cnn23)ncc1C(=O)Nc1cncc(N)c1 [Example 490] | 220 nM | 7 nM |  |  |
| CC(C)(O)[C@H](F)CNC(=O)c1cnc(-c2ccc3cc(C#N)cnn23)cc1Nc1ccc2cnccc2n1 [Example 821, (R)-4-((1,6-naphthyridin-2-yl)amino)-6-(3-cyano-pyrrolo[1,2-b]pyridazin-7-yl)-N-(2-fluoro-3-hydroxy-3-methylbutyl)nicotinamide] |  |  | 51 nM | < 1 nM |
| CC(C)(O)[C@H](F)CNC(=O)c1cnc(-c2ccc3cc(C#N)cnn23)cc1N[C@@H]1CNCCC1(F)F [Example 240, 6-(3-cyanopyrrolo[1,2-b]pyridazin-7-yl)-4-(((R)-4,4-difluoropiperidin-3-yl)amino)-N-((R)-2-fluoro-3-hydroxy-3-methylbutyl) nicotinamide] | 27 nM |  |  | 1 nM |
| CC(C)(O)[C@H](F)CNC(=O)c1cnc(-c2ccc3cc(C#N)cnn23)cc1NC[C@@H]1COCCN1 [Example 917, 6-(3-cyanopyrrolo[1,2-b]pyridazin-7-yl)-N-((R)-2-fluoro-3-hydroxy-3-methylbutyl)-4-((((R)-morpholin-3-yl)methyl)amino)nicotinamide] |  |  | 72 nM | 1 nM |
| CC(C)(O)[C@H](F)CNC(=O)c1cnc(-c2ccc3cc(C#N)cnn23)cc1NN1CCOCC1 [Example 44, (R)-6-(3-cyanopyrrolo[1,2-b]pyridazin-7-yl)-N-(2-fluoro-3-hydroxy-3-methylbutyl)-4-(morpholinoamino) nicotinamide] | > 10000 nM |  |  | 6630 nM |
| CC(C)(O)[C@H](F)CNC(=O)c1cnc(-c2ccc3cc(C#N)cnn23)cc1Nc1ccc(N2CCOCC2)nc1 [Example 673, (R)-6-(3-cyanopyrrolo[1,2-b]pyridazin-7-yl)-N-(2-fluoro-3-hydroxy-3-methyl-butyl)-4-((6-morpholino-pyridin-3-yl)amino) nicotinamide] | 19 nM | < 1 nM |  |  |
| [2H]C([2H])([2H])OC(=O)NC12CCC(Nc3cc(-c4ccc5cc(C#N)cnn45)ncc3C(=O)NC[C@@H](F)C(C)(C)O)(CC1)CC2 [Example 283, methyl-d3 (R)-(4-((2-(3-cyanopyrrolo[1,2-b]pyridazin-7-yl)-5-((2-fluoro-3-hydroxy-3-methylbutyl)carbamoyl)pyridin-4-yl)amino)bicyclo[2.2.2]octan-1-yl)carbamate] | 14 nM |  |  | 1 nM |
| N#Cc1cnn2c(-c3cc(N[C@H]4CCC[C@@H](O)C4)c(C(=O)N[C@H]4CC[C@H](NC(=O)C5CC5)CC4)cn3)ccc2c1 [Example 527, 6-(3-cyanopyrrolo[1,2-b]pyridazin-7-yl)-N-((1r,4S)-4-(cyclopropane-carboxamido)cyclohexyl)-4-(((1S,3R)-3-hydroxycyclo-hexyl)amino)nicotinamide] | 16 nM | < 1 nM |  |  |
| CNC(=O)c1cnc(-c2ccc3cc(C#N)cnn23)cc1NC12CC(NC(=O)OC)(C1)C2 [Example 488, methyl (3-((2-(3-cyano-pyrrolo[1,2-b]pyridazin-7-yl)-5-(methylcarbamoyl)pyridin-4-yl)amino)bicyclo[1.1.1]pentan-1-yl)carbamate] | 71 nM | 1 nM |  |  |
| COC(=O)NC[C@H]1C[C@@H](Nc2cc(-c3ccc4cc(C#N)cnn34)ncc2C(=O)NC[C@@H](F)C(C)(C)O)C1 [Example 698, methyl (((1S,3s)-3-((2-(3-cyanopyrrolo[1,2-b]pyridazin-7-yl)-5-(((R)-2-fluoro-3-hydroxy-3-methylbutyl)carbamoyl)pyridin-4-yl)amino)cyclo-butyl)methyl)carbamate] | 201 nM | 3 nM |  |  |
| CNC(=O)C12CCC(Nc3cc(-c4ccc5cc(C#N)cnn45)ncc3C(=O)NCC#N)(CC1)CC2 [Example 475, N-(cyanomethyl)-6-(3-cyanopyrrolo[1,2-b]pyridazin-7-yl)-4-((4-(methylcarbamoyl)bicyclo[2.2.2]octan-1-yl)amino)nicotinamide] | 16 nM | < 1 nM |  |  |
| N#Cc1cnn2c(-c3cc(N[C@H]4CCC[C@@H](O)C4)c(C(=O)NCC4(C#N)CC4)cn3)ccc2c1 [Example 428, N-((1-cyanocyclopropyl)methyl)-6-(3-cyano-pyrrolo[1,2-b]pyridazin-7-yl)-4-(((1S,3R)-3-hydroxycyclohexyl)amino)nicotinamide] | 4270 nM | 63 nM |  |  |
| CC(C)(O)[C@H](F)CNC(=O)c1cnc(-c2ccc3cc(C#N)cnn23)cc1Nc1ccnnc1 [Example 183, (R)-6-(3-cyanopyrrolo[1,2-b]pyridazin-7-yl)-N-(2-fluoro-3-hydroxy-3-methylbutyl)-4-(pyridazin-4-ylamino)nicotinamide] | 657 nM |  |  | 6 nM |
| CC(C)Nc1cc(-c2ccc3cc(C#N)cnn23)ncc1C(=O)NCCC(C)(C)O [Example 41, 6-(3-cyanopyrrolo[1,2-b]pyridazin-7-yl)-N-(3-hydroxy-3-methylbutyl)-4-(isopropylamino) nicotinamide] | 78 nM |  |  | < 1 nM |
| CC(=O)N1CC[C@@H]1CNc1cc(-c2ccc3cc(C#N)cnn23)ncc1C(=O)NC[C@@H](F)C(C)(C)O [Example 892, 4-((((R)-1-acetylazetidin-2-yl)methyl)amino)-6-(3-cyanopyrrolo[1,2-b]pyridazin-7-yl)-N-((R)-2-fluoro-3-hydroxy-3-methylbutyl)nicotinamide] |  |  | 808 nM | 3 nM |
| CC(=O)NC12CC(Nc3cc(-c4ccc5cc(C#N)cnn45)ncc3C(=O)NC[C@@H](F)C(C)(C)F)(C1)C2 [Example 494, (R)-4-((3-acetamido-bicyclo[1.1.1]pentan-1-yl)amino)-6-(3-cyano-pyrrolo[1,2-b]pyridazin-7-yl)-N-(2,3-difluoro-3-methylbutyl)nicotinamide] | 44 nM | < 1 nM |  |  |
